Data: BindingDB's records for doi:10.1124/jpet.104.081562 (Mayo Clinic, 2005)

Each compound was assayed against T1, Promotilin (Homo sapiens, UniProt P12872).
T1 sequence (P12872 whole entry): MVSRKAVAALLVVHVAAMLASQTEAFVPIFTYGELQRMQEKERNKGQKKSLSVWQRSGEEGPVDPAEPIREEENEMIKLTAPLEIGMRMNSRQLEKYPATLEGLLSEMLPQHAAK
With CC[C@H](C)[C@H](NC(=O)[C@@H]1CCCN1C(=O)[C@@H](NC(=O)[C@@H](N)Cc1ccccc1)C(C)C)C(=O)N[C@@H](Cc1ccccc1)C(=O)N[C@H](C(=O)N[C@@H](Cc1ccc(O)cc1)C(=O)NCC(=O)N[C@@H](CCC(=O)O)C(=O)N[C@@H](CC(C)C)C(=O)N[C@@H](CCC(N)=O)C(=O)N[C@@H](CCCNC(=N)N)C(=O)N[C@@H](CCSC)C(=O)N[C@@H](CCC(N)=O)C(=O)N[C@@H](CCC(=O)O)C(=O)N[C@@H](CCCCN)C(=O)N[C@@H](CCC(=O)O)C(=O)N[C@@H](CCCNC(=N)N)C(=O)N[C@@H](CC(N)=O)C(=O)N[C@@H](CCCCN)C(=O)NCC(=O)N[C@@H](CCC(N)=O)C(=O)O)[C@@H](C)O [CAS_52906-92-0] the Ki was 2.3 nM. In the case of CC[C@H](C)[C@H](NC(=O)[C@H](CCCN=C(N)N)NC(=O)[C@H](CCC(N)=O)NC(=O)[C@H](CC(C)C)NC(=O)[C@H](CCC(=O)O)NC(=O)CNC(=O)[C@H](Cc1ccc(O)cc1)NC(=O)[C@@H](NC(=O)[C@@H](Cc1ccc(C(=O)c2ccccc2)cc1)NC(=O)[C@@H](NC(=O)[C@@H]1CCCN1C(=O)[C@@H](NC(=O)[C@@H](N)Cc1ccccc1)C(C)C)[C@@H](C)CC)[C@@H](C)O)C(=O)N[C@@H](CCC(N)=O)C(=O)N[C@@H](CCC(=O)O)C(=O)N[C@@H](CCCCN)C(=O)N[C@@H](CCC(=O)O)C(=O)N[C@@H](CCCN=C(N)N)C(=O)N[C@@H](CC(N)=O)C(=O)N[C@@H](CCCCN)C(=O)NCC(=O)N[C@@H](CCC(N)=O)C(=O)O [[D-Bpa5,Ile13]Motilin], the Ki is reported as 420 nM. CC[C@H](C)[C@H](NC(=O)[C@H](CCCN=C(N)N)NC(=O)[C@H](CCC(N)=O)NC(=O)[C@H](CC(C)C)NC(=O)[C@H](CCC(=O)O)NC(=O)CNC(=O)[C@H](Cc1ccc(O)cc1)NC(=O)[C@@H](NC(=O)[C@H](Cc1ccc(C(=O)c2ccccc2)cc1)NC(=O)[C@@H](NC(=O)[C@@H]1CCCN1C(=O)[C@@H](NC(=O)[C@@H](N)Cc1ccccc1)C(C)C)[C@@H](C)CC)[C@@H](C)O)C(=O)N[C@@H](CCC(N)=O)C(=O)N[C@@H](CCC(=O)O)C(=O)N[C@@H](CCCCN)C(=O)N[C@@H](CCC(=O)O)C(=O)N[C@@H](CCCN=C(N)N)C(=O)N[C@@H](CC(N)=O)C(=O)N[C@@H](CCCCN)C(=O)NCC(=O)N[C@@H](CCC(N)=O)C(=O)O [[L-Bpa5,Ile13]Motilin] gave a Ki of 50 nM.
